Data as given in PMC6153549 (Investigational New Drugs, 2018).
“Also recorded” adds a separate entry of the source. Where two headings read alike, the source gives them in different places. One block for each compound: values may come before it.

Legend:
[1] = lapatinib administered together with leucovorin, irinotecan and 5-fluorouracil; cited from earlier work
UGTs = conditions: in vitro, human liver microsomes; cited from earlier work
[2] = Plasma pharmacokinetics of lapatinib in rats (HPLC-MS/MS, non-compartmental); format: in vivo, Wistar rats; conditions: for AUC0-t / AUC(0-inf) / Cmax / Vd/F / k el / MRT last / tmax / AUMC0-t / Cl/F: plasma; for MRT last: read-out: MRT0-t
Procedure: The experimental protocol for this study was reviewed and approved by the Local Ethics Committee. All procedures were performed in accordance with the European Union regulations concerning the handling and use of laboratory animals. The study was based on the required minimum number of animals and observation time in order to obtain consistent data. […] The animals were allowed to acclimatise for a week before the beginning of the experiments. The rats were divided into three groups. […] In order to make sure that the animals received the entire dose of the drug, 1 mL of DMSO was then administered to rinse the probe. 80 μL of blood was collected from each rat by cutting off a piece of his tail. […] The blood samples were transferred into heparinised tubes and they were centrifuged at 2880 g for 10 min at 4 °C.
Chromatographic separation was performed on a Kinetex C18 column (50 × 4.6 mm, 2.6 μm, Phenomenex, Torrance, CA, USA). The column temperature and injection volume were set at 35 °C and 10 μL, respectively. The mobile phase comprised 0.1% formic acid in water with 5 mM ammonium formate (eluent A) and acetonitrile with 10% phase A (eluent B).
An aliquot of the rat plasma (20 μL) was mixed with 50 μL of IS solution (100 ng/mL) and 930 μL of methanol and then vortexed for 30 s. As a result, a total dilution factor of 50 was obtained. After centrifugation at 10,000 g (10 min), the supernatant was transferred into amber glass HPLC vials. The validation was performed according to the guidelines of EMA concerning validation of bioanalytical methods.
The pharmacokinetic parameters were estimated with the non-compartmental method, using Phoenix® WinNonlin® 7.0 software (Certara L.P.). kel – elimination rate constant; AUC0-t – area under the plasma concentration-time curve from zero to the time of the last measurable concentration; AUC0-∞ – area under the plasma concentration-time curve from zero to infinity; t0.5 – elimination half-life; Cl/F – clearance; Vd/F – volume of distribution; Cmax – maximum plasma concentration; tmax – time necessary to reach the maximum concentration; MRT0-t – mean residence time; AUMC0-t – area under the first moment curve.

[3] = cited from earlier work
UGT1A7 = system: UGT1A7; set-up: method as in PMID 26642944; conditions: cited from earlier work
UGT1A1 = system: UGT1A1; set-up: method as in PMID 26642944; conditions: cited from earlier work
UGT1A4 = system: UGT1A4; set-up: method as in PMID 26642944; conditions: cited from earlier work
[4] = male, Wistar, rat, po, 100 mg/kg, rats, lapatinib 100 mg/kg p.o. + paracetamol 100 mg/kg p.o. (IL + PA), M ± SD
[5] = male, Wistar, rat, po, 100 mg/kg, rats, lapatinib 100 mg/kg p.o. alone (IIL), M ± SD
[6] = rats, lapatinib 100 mg/kg p.o. + paracetamol 100 mg/kg p.o. (IL + PA), M ± SD
[7] = rats, lapatinib 100 mg/kg p.o. alone (IIL), M ± SD
[8] = patients treated with lapatinib

SMILES: CCc1c2c(nc3ccc(O)cc13)-c1cc3c(c(=O)n1C2)COC(=O)[C@]3(O)CC [SN-38]
increase in AUC of SN-38 [1]: about 40%

SMILES: Cc1nc(Nc2ncc(C(=O)Nc3c(C)cccc3Cl)s2)cc(N2CCN(CCO)CC2)n1 [dasatinib]
inhibition of paracetamol glucuronidation (UGTs): inhibited paracetamol glucuronidation

SMILES: C#Cc1cccc(Nc2ncnc3cc(OCCOC)c(OCCOC)cc23)c1 [erlotinib, Erlotinib]
inhibition of paracetamol glucuronidation (UGTs): slight inhibitory effect

SMILES: Cc1ccc(NC(=O)c2ccc(CN3CCN(C)CC3)cc2)cc1Nc1nccc(-c2cccnc2)n1 [imatinib]
inhibition of paracetamol glucuronidation (UGTs): inhibited paracetamol glucuronidation

AUC0-t [2, 4]: 20700 ± 8270 ng·h/mL
AUC(0-inf) [2, 4]: 39500 ± 24000 ng·h/mL
Cmax [2, 4]: 2240 ± 585 ng/mL
Vd/F [2, 4]: 17.5 ± 2.55 L
k el [2, 4]: 1.94e-05 s⁻¹
MRT last [2, 4]: 7.28 ± 3.15 h
AUC0-t [2, 5]: 6080 ± 3930 ng·h/mL
AUC(0-inf) [2, 5]: 8040 ± 4750 ng·h/mL
Cmax [2, 5]: 787 ± 213 ng/mL
Vd/F [2, 5]: 57.2 ± 23.3 L
k el [2, 5]: 2.5e-05 s⁻¹
MRT last [2, 5]: 5.77 ± 1.95 h
tmax ([2]; male, Wistar, rat, po, 100 mg/kg, read-out: tmax): 2.42 ± 1.11 h
increase in Cmax ([2]; rats, co-administration with paracetamol (IL + PA) vs lapatinib alone (IIL)): 184%
AUMC0-t [2, 6]: 620.79 ± 1170.66 (188.6) mg × h^2/L
Cl/F [2, 6]: 2.81 ± 1.20 (42.8) L/h
tmax [2, 6]: 2.50 ± 0.84 (33.5) h
AUMC0-t [2, 7]: 40.79 ± 37.98 (93.1) mg × h^2/L
Cl/F [2, 7]: 11.46 ± 6.76 (59.0) L/h
SMILES: CS(=O)(=O)CCNCc1ccc(-c2ccc3ncnc(Nc4ccc(OCc5cccc(F)c5)c(Cl)c4)c3c2)o1 [lapatinib, Lapatinib]
patients with isolated ALT increase more than 3 times ULN ([3]; patients subjected to lapatinib therapy): 3–5%
patients in whom ULN was exceeded 5–20 times [3, 8]: 1.6%
patients with hyperbilirubinemia and severe liver damage [3, 8]: 0.2%
UGT1A7 inhibition type (UGT1A7): non-competitive
inhibition of paracetamol glucuronidation (UGTs): slight inhibitory effect; also recorded: weak inhibitor
UGT1A1 inhibition (UGT1A1): strong competitive inhibitor
UGT1A4 inhibition type (UGT1A4): mixed

SMILES: Cc1cn(-c2cc(NC(=O)c3ccc(C)c(Nc4nccc(-c5cccnc5)n4)c3)cc(C(F)(F)F)c2)cn1 [nilotinib]
inhibition of paracetamol glucuronidation (UGTs): slight inhibitory effect
